We go through 15 compounds from US8163724B2, “Glucocorticosteroids, processes for their preparation, pharmaceutical compositions containing them and their use in therapy” (AstraZeneca AB, priority 2007, dated 2012).

The target in the experiment is T1, recombinant human GR (Homo sapiens, UniProt P04150).
T1 construct: purchased Panvera/Invitrogen P2812 (kit P2893)
T1 sequence (P04150 1-777): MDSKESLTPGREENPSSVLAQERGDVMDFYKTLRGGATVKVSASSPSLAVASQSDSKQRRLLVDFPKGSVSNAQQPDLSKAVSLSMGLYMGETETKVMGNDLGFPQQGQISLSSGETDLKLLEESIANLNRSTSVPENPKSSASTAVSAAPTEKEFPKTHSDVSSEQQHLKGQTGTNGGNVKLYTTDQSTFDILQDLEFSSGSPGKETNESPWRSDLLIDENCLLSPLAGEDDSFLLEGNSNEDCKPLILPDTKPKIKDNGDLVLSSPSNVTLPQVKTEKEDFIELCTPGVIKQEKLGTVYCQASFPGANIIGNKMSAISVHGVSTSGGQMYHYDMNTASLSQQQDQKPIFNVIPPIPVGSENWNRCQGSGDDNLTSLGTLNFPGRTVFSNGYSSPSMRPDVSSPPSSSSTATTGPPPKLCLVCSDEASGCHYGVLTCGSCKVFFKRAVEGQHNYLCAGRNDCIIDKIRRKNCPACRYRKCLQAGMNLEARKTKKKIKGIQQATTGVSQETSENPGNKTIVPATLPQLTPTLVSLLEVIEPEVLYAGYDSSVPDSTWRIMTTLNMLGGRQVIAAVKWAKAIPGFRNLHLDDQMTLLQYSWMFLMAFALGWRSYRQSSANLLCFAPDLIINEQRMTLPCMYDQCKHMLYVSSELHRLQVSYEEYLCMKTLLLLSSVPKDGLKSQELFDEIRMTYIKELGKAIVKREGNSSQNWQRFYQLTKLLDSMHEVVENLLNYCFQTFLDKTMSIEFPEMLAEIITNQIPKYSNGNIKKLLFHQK
Description: Human Glucocorticoid Receptor (GR) Assay (fluorescence polarization, Panvera/Invitrogen kit). The experiment is classed as binding. As to conditions: fluorescence polarization; GS Red tracer; 2 hours at room temperature; 100% control 10 μM Dexamethasone; read-out: Inhibition of GR binding, IC50. The method, boiled down: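 Fluorescence polarization competition with recombinant GR and GS Red fluorescent ligand plus stabilizing peptide and DTT in potassium phosphate/sodium molybdate/EDTA buffer with DMSO. Incubated 2 hours at room temperature in the dark; 0% control DMSO, 100% control 10 μM dexamethasone.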
The IC50 is the midpoint of a concentration-inhibition curve. For `C[C@]12Cc3cnn(-c4ccc(F)cc4F)c3C=C1CC[C@@H]1[C@@H]2[C@@H](O)C[C@@]2(C)[C@H]1CC[C@]2(OC(=O)c1ccco1)C(=O)SCC#N` [Example 101, (1R,3aS,3bS,10aR,10bS,11S,12aS)-1-{[(Cyanomethyl)thio]carbonyl}-7-(2,4-difluorophenyl)-11-hydroxy-10a,12a-dimethyl-1,2,3,3a,3b,4,5,7,10,10a,10b,11,12,12a-tetradecahydrocyclopenta[5,6]naphtho[1,2-f]indazol-1-yl furan-2-carboxylate], the IC50 is 29 nM. Then `C[C@]12Cc3cnn(-c4cc(F)cc(F)c4)c3C=C1CC[C@@H]1[C@@H]2[C@@H](O)C[C@@]2(C)[C@H]1CC[C@]2(OC(=O)c1ccco1)C(=O)SCC#N` [Example 102, (1R,3aS,3bS,10aR,10bS,11S,12aS)-1-{[(Cyanomethyl)thio]carbonyl}-7-(3,5-difluorophenyl)-11-hydroxy-10a,12a-dimethyl-1,2,3,3a,3b,4,5,7,10,10a,10b,11,12,12a-tetradecahydrocyclopenta[5,6]naphtho[1,2-f]indazol-1-yl furan-2-carboxylate], with 8.2 nM; and `C[C@]12Cc3cnn(-c4ccc(F)c(F)c4)c3C=C1CC[C@@H]1[C@@H]2[C@@H](O)C[C@@]2(C)[C@H]1CC[C@]2(OC(=O)c1ccco1)C(=O)SCC#N` [Example 103, (1R,3aS,3bS,10aR,10bS,11S,12aS)-1-{[(Cyanomethyl)thio]carbonyl}-7-(3,4-difluorophenyl)-11-hydroxy-10a,12a-dimethyl-1,2,3,3a,3b,4,5,7,10,10a,10b,11,12,12a-tetradecahydrocyclopenta[5,6]naphtho[1,2-f]indazol-1-yl furan-2-carboxylate], with 6.4 nM; and `CCOC(=O)[C@@]1(O)CC[C@H]2[C@@H]3CCC4=Cc5c(cnn5-c5ccc(F)cc5)C[C@]4(C)[C@H]3[C@@H](O)C[C@@]21C` [Example 104, Ethyl (1R,3aS,3bS,10aR,10bS,11S,12aS)-7-(4-fluorophenyl)-1,11-dihydroxy-10a,12a-dimethyl-1,2,3,3a,3b,4,5,7,10,10a,10b,11,12,12a-tetradecahydrocyclopenta[5,6]naphtho[1,2-f]indazole-1-carboxylate], with 4.2 nM. Then `C[C@]12Cc3cnn(-c4ccccn4)c3C=C1CC[C@@H]1[C@@H]2[C@@H](O)C[C@@]2(C)[C@H]1CC[C@]2(OC(=O)c1ccco1)C(=O)OCC#N` [Example 105, Cyanomethyl(1R,3aS,3bS,10aR,10bS,11S,12aS)-1-[(furan-2-ylcarbonyl)oxy]-11-hydroxy-10a,12a-dimethyl-7-pyridin-2-yl-1,2,3,3a,3b,4,5,7,10,10a,10b,11,12,12a-tetradecahydrocyclopenta[5,6]naphtho[1,2-f]indazole-1-carboxylate], with 6.1 nM; and `C[C@]12Cc3cnn(-c4ccc(S(C)(=O)=O)cc4)c3C=C1CC[C@@H]1[C@@H]2[C@@H](O)C[C@@]2(C)[C@H]1CC[C@]2(OC(=O)c1ccco1)C(=O)SCC#N` [Example 106, (1R,3aS,3bS,10aR,10bS,11S,12aS)-1-{[(Cyanomethyl)sulfanyl]carbonyl}-11-hydroxy-10a,12a-dimethyl-7-[4-(methylsulfonyl)phenyl]-1,2,3,3a,3b,4,5,7,10,10a,10b,11,12,12a-tetradecahydrocyclopenta[5,6]naphtho[1,2-f]indazol-1-yl furan-2-carboxylate], with 160 nM. `CN(C)C(=O)SC(=O)[C@@]1(OC(=O)c2ccco2)CC[C@H]2[C@@H]3CCC4=Cc5c(cnn5-c5cc(F)cc(F)c5)C[C@]4(C)[C@H]3[C@@H](O)C[C@@]21C` [Example 107, (1R,3aS,3bS,10aR,10bS,11S,12aS)-7-(3,5-Difluorophenyl)-1-{[(dimethylcarbamoyl)sulfanyl]carbonyl}-11-hydroxy-10a,12a-dimethyl-1,2,3,3a,3b,4,5,7,10,10a,10b,11,12,12a-tetradecahydrocyclopenta[5,6]naphtho[1,2-f]indazol-1-yl furan-2-carboxylate]: the IC50 turned out to be 59 nM.

Regarding `COC(=O)c1cccc(-n2ncc3c2C=C2CC[C@@H]4[C@H]([C@@H](O)C[C@@]5(C)[C@H]4CC[C@]5(OC(=O)c4ccco4)C(=O)SCF)[C@@]2(C)C3)c1` [Example 108, (1R,3aS,3bS,10aR,10bS,11S,12aS)-1-{[(Fluoromethyl)sulfanyl]carbonyl}-11-hydroxy-7-[3-(methoxycarbonyl)phenyl]-10a,12a-dimethyl-1,2,3,3a,3b,4,5,7,10,10a,10b,11,12,12a-tetradecahydrocyclopenta[5,6]naphtho[1,2-f]indazol-1-yl furan-2-carboxylate], the IC50 worked out at 6.6 nM. With `CC(=O)O[C@]1(C(=O)SCC#N)CC[C@H]2[C@@H]3CCC4=Cc5c(cnn5-c5ccc(F)cc5)C[C@]4(C)[C@H]3[C@@H](O)C[C@@]21C` [Example 109, (1R,3aS,3bS,10aR,10bS,11S,12aS)-1-{[(Cyanomethyl)sulfanyl]carbonyl}-7-(4-fluorophenyl)-11-hydroxy-10a,12a-dimethyl-1,2,3,3a,3b,4,5,7,10,10a,10b,11,12,12a-tetradecahydrocyclopenta[5,6]naphtho[1,2-f]indazol-1-yl acetate], the IC50 was 4.1 nM. As to `CC(=O)O[C@]1(C(=O)SCF)CC[C@H]2[C@@H]3CCC4=Cc5c(cnn5-c5ccc(F)cc5)C[C@]4(C)[C@H]3[C@@H](O)C[C@@]21C` [Example 110, (1R,3aS,3bS,10aR,10bS,11S,12aS)-1-{[(Fluoromethyl)sulfanyl]carbonyl}-7-(4-fluorophenyl)-11-hydroxy-10a,12a-dimethyl-1,2,3,3a,3b,4,5,7,10,10a,10b,11,12,12a-tetradecahydrocyclopenta[5,6]naphtho[1,2-f]indazol-1-yl acetate], the half-inhibitory concentration (IC50) was 6.7 nM. For the compound `CC(C)C(=O)O[C@]1(C(=O)SCC#N)CC[C@H]2[C@@H]3CCC4=Cc5c(cnn5-c5ccc(F)cc5)C[C@]4(C)[C@H]3[C@@H](O)C[C@@]21C` [Example 111, (1R,3aS,3bS,10aR,10bS,11S,12aS)-1-{[(Cyanomethyl)sulfanyl]carbonyl}-7-(4-fluorophenyl)-11-hydroxy-10a,12a-dimethyl-1,2,3,3a,3b,4,5,7,10,10a,10b,11,12,12a-tetradecahydrocyclopenta[5,6]naphtho[1,2-f]indazol-1-yl 2-methylpropanoate], the IC50 was 6.3 nM. Take `CC(C)CC(=O)O[C@]1(C(=O)SCC#N)CC[C@H]2[C@@H]3CCC4=Cc5c(cnn5-c5ccc(F)cc5)C[C@]4(C)[C@H]3[C@@H](O)C[C@@]21C` [Example 112, (1R,3aS,3bS,10aR,10bS,11S,12aS)-1-{[(Cyanomethyl)sulfanyl]carbonyl}-7-(4-fluorophenyl)-11-hydroxy-10a,12a-dimethyl-1,2,3,3a,3b,4,5,7,10,10a,10b,11,12,12a-tetradecahydrocyclopenta[5,6]naphtho[1,2-f]indazol-1-yl 3-methylbutanoate]: the IC50 was determined as 18 nM. Then `C[C@]12Cc3cnn(-c4ccc(F)cc4)c3C=C1CC[C@@H]1[C@@H]2[C@@H](O)C[C@@]2(C)[C@H]1CC[C@]2(OC(=O)C1CCC1)C(=O)SCC#N` [Example 113, (1R,3aS,3bS,10aR,10bS,11S,12aS)-1-{[(Cyanomethyl)sulfanyl]carbonyl}-7-(4-fluorophenyl)-11-hydroxy-10a,12a-dimethyl-1,2,3,3a,3b,4,5,7,10,10a,10b,11,12,12a-tetradecahydrocyclopenta[5,6]naphtho[1,2-f]indazol-1-yl cyclobutanecarboxylate], with 11 nM. Then `C[C@]12Cc3cnn(-c4ccc(F)cc4)c3C=C1CC[C@@H]1[C@@H]2[C@@H](O)C[C@@]2(C)[C@H]1CC[C@]2(OC(=O)CC1CCCC1)C(=O)SCC#N` [Example 114, (1R,3aS,3bS,10aR,10bS,11S,12aS)-1-{[(Cyanomethyl)sulfanyl]carbonyl}-7-(4-fluorophenyl)-11-hydroxy-10a,12a-dimethyl-1,2,3,3a,3b,4,5,7,10,10a,10b,11,12,12a-tetradecahydrocyclopenta[5,6]naphtho[1,2-f]indazol-1-yl cyclopentylacetate], with 16 nM; and `C[C@]12Cc3cnn(-c4ccc(F)cc4)c3C=C1CC[C@@H]1[C@@H]2[C@@H](O)C[C@@]2(C)[C@H]1CC[C@]2(OC(=O)c1cccs1)C(=O)SCC#N` [Example 115, (1R,3aS,3bS,10aR,10bS,11S,12aS)-1-{[(Cyanomethyl)sulfanyl]carbonyl}-7-(4-fluorophenyl)-11-hydroxy-10a,12a-dimethyl-1,2,3,3a,3b,4,5,7,10,10a,10b,11,12,12a-tetradecahydrocyclopenta[5,6]naphtho[1,2-f]indazol-1-yl thiophene-2-carboxylate], with 10 nM.
